Results published in ChEMBL document CHEMBL3991601, “The target landscape of clinical kinase drugs” (Science, 2017).
pKd: −log10 of the molar value. Activity calls are given as the source filed them.

Tests used:
[1] = target: Non-receptor tyrosine-protein kinase TYK2 (Homo sapiens, UniProt P29597)
[2] = target: Elongation factor Tu, mitochondrial (Homo sapiens, UniProt P49411)
[3] = target: T1, Very long-chain specific acyl-CoA dehydrogenase, mitochondrial (Homo sapiens, UniProt P49748)
T1 sequence (P49748 whole entry): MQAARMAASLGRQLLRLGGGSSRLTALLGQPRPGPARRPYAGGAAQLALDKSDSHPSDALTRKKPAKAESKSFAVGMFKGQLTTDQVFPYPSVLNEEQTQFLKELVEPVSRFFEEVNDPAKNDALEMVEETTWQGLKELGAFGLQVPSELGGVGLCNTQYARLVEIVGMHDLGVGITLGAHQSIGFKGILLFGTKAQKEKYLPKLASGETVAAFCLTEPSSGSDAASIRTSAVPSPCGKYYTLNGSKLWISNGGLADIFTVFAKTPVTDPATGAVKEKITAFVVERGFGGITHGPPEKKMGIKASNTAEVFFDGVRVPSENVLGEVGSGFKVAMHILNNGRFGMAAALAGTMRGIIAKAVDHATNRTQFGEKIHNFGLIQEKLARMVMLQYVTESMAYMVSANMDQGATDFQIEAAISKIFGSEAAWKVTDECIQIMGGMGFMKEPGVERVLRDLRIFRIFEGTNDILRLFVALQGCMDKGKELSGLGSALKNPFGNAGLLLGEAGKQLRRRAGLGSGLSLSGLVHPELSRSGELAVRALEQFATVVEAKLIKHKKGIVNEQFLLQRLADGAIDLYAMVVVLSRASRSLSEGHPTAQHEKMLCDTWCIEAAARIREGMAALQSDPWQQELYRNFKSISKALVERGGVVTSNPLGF

[4] = target: Mitotic checkpoint serine/threonine-protein kinase BUB1 (Homo sapiens, UniProt O43683)
[5] = target: AP2-associated protein kinase 1 (Homo sapiens, UniProt Q2M2I8)
[6] = target: Maternal embryonic leucine zipper kinase (Homo sapiens, UniProt Q14680)
[7] = target: cAMP-dependent protein kinase type II-alpha regulatory subunit (Homo sapiens, UniProt P13861)
[8] = target: T2, Exosome RNA helicase MTR4 (Homo sapiens, UniProt P42285)
T2 sequence (P42285 whole entry): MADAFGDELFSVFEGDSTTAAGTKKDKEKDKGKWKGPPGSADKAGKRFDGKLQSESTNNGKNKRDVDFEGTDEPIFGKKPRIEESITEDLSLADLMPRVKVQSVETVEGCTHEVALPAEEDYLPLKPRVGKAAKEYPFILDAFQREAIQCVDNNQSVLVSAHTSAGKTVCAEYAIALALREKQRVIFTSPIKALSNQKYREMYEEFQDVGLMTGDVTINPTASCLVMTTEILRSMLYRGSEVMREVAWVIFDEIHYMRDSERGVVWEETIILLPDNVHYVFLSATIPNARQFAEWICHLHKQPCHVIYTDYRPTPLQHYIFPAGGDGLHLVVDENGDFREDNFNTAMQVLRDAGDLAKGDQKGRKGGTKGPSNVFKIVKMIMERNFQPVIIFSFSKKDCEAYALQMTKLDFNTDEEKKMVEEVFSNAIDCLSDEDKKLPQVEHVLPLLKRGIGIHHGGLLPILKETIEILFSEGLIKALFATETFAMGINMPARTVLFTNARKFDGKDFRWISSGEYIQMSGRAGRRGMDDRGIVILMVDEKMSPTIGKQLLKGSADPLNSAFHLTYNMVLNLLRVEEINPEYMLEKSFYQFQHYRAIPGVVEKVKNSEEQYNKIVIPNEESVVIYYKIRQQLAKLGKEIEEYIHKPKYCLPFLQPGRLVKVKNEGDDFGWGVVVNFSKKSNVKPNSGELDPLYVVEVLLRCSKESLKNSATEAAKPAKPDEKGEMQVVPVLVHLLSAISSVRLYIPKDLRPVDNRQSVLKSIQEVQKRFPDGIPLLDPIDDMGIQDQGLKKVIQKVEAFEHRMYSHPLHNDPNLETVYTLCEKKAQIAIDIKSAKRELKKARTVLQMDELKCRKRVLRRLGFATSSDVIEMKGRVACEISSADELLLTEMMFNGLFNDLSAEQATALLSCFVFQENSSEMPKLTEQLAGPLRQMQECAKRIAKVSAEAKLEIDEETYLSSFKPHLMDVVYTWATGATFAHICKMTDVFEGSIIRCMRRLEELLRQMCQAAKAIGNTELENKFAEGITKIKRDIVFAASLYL

Actin-related protein 2 = Actin-related protein 2 (Homo sapiens, UniProt P61160)
[9] = target: T3, Cysteine--tRNA ligase, cytoplasmic (Homo sapiens, UniProt P49589)
T3 sequence (P49589 whole entry): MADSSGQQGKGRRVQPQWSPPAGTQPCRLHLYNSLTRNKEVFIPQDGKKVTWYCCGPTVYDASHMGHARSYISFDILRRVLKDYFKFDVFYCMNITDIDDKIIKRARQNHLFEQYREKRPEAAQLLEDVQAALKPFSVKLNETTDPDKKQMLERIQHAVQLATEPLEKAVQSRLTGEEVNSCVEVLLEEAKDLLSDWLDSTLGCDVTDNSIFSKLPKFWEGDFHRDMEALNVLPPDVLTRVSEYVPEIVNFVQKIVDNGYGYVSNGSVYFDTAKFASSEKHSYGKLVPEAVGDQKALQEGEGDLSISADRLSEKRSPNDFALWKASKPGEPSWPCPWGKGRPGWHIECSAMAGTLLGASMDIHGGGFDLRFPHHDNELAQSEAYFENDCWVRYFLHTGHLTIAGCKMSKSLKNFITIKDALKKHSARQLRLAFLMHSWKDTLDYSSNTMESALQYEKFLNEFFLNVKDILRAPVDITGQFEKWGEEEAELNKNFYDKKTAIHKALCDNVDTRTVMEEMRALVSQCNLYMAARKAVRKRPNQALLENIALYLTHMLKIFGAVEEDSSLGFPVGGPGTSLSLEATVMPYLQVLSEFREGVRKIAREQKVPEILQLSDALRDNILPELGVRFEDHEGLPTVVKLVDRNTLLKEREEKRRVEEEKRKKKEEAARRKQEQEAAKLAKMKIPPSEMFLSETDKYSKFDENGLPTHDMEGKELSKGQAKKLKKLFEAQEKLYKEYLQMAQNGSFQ
Note: in the data inactive means no Kd found up to 30 µM.

Maternal embryonic leucine zipper kinase, sequence (Q14680 whole entry): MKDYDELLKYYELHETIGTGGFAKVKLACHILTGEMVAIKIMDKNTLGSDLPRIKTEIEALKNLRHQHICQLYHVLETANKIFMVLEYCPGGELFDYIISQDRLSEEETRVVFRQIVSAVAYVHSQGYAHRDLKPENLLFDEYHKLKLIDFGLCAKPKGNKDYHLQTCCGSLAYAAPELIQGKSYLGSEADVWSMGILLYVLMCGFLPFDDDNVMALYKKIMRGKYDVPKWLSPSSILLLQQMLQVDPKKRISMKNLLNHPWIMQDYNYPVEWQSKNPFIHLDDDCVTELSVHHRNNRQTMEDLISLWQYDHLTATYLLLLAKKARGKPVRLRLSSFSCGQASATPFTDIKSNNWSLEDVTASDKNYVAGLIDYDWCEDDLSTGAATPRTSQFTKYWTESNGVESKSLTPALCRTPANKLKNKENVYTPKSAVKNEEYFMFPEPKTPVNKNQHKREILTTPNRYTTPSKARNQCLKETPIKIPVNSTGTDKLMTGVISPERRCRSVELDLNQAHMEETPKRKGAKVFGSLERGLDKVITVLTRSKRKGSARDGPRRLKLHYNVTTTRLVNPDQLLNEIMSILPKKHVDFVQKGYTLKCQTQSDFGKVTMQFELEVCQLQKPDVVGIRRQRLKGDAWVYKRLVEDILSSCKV
cAMP-dependent protein kinase type II-alpha regulatory subunit, sequence (P13861 whole entry): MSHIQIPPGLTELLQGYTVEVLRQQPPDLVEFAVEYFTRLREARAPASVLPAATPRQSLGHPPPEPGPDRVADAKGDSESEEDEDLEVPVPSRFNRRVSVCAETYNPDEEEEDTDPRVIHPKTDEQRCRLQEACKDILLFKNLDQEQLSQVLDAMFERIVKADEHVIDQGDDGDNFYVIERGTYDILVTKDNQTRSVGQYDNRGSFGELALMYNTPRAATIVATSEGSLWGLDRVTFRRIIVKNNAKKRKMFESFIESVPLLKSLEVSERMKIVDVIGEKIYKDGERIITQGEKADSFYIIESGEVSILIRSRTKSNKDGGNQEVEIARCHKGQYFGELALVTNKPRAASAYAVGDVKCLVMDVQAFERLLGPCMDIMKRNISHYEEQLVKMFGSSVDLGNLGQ
Mitotic checkpoint serine/threonine-protein kinase BUB1, sequence (O43683 whole entry): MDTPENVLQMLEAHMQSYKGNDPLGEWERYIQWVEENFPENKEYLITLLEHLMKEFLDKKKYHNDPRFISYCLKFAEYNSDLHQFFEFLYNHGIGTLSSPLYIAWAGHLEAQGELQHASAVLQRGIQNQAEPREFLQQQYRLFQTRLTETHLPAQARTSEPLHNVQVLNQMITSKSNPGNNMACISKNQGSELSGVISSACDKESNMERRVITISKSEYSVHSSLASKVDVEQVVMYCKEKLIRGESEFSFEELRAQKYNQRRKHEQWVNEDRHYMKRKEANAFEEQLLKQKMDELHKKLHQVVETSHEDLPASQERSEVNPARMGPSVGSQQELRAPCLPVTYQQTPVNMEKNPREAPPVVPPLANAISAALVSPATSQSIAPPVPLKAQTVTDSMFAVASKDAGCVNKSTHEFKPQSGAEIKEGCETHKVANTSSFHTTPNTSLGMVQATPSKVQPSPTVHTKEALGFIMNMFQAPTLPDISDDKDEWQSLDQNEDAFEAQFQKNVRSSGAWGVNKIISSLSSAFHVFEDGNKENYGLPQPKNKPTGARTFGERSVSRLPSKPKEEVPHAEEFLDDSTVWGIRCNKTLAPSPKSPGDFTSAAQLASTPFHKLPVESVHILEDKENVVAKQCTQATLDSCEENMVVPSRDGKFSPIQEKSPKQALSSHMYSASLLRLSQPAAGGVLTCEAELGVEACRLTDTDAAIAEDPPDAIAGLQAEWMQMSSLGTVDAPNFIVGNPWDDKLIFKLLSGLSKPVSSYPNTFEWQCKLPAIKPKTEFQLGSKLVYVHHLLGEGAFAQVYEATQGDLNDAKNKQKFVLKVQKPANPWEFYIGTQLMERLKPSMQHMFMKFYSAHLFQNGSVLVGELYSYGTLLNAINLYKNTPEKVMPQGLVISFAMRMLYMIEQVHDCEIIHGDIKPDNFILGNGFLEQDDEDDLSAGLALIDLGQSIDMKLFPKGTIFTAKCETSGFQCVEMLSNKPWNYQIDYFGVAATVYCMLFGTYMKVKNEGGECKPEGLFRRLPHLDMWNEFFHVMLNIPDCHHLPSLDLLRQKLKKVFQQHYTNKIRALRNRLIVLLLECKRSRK
AP2-associated protein kinase 1, sequence (Q2M2I8 whole entry): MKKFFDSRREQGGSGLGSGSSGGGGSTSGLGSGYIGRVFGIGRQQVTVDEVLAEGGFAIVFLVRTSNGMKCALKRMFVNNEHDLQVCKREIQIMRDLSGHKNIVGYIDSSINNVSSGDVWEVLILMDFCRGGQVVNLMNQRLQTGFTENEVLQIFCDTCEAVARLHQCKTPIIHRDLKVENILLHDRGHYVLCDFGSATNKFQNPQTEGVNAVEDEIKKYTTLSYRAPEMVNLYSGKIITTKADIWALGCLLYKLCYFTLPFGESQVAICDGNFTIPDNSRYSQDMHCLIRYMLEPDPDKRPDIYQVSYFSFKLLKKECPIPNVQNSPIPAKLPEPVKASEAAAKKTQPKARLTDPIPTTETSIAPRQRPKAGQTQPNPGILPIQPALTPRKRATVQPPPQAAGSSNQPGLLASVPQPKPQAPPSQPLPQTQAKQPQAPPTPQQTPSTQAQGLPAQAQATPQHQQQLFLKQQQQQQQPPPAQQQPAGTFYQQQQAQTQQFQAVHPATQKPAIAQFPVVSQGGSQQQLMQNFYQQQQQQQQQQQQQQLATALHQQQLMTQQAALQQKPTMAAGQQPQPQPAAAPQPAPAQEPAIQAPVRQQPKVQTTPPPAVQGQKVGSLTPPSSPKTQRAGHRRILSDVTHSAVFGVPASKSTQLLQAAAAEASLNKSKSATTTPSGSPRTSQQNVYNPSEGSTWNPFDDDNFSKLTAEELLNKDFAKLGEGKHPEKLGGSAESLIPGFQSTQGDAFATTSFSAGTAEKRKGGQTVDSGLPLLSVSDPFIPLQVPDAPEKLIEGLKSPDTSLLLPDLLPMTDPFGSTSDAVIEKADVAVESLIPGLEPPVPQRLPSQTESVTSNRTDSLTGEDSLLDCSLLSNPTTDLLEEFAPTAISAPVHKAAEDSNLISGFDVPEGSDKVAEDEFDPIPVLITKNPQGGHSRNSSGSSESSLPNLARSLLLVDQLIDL
Non-receptor tyrosine-protein kinase TYK2, sequence (P29597 whole entry): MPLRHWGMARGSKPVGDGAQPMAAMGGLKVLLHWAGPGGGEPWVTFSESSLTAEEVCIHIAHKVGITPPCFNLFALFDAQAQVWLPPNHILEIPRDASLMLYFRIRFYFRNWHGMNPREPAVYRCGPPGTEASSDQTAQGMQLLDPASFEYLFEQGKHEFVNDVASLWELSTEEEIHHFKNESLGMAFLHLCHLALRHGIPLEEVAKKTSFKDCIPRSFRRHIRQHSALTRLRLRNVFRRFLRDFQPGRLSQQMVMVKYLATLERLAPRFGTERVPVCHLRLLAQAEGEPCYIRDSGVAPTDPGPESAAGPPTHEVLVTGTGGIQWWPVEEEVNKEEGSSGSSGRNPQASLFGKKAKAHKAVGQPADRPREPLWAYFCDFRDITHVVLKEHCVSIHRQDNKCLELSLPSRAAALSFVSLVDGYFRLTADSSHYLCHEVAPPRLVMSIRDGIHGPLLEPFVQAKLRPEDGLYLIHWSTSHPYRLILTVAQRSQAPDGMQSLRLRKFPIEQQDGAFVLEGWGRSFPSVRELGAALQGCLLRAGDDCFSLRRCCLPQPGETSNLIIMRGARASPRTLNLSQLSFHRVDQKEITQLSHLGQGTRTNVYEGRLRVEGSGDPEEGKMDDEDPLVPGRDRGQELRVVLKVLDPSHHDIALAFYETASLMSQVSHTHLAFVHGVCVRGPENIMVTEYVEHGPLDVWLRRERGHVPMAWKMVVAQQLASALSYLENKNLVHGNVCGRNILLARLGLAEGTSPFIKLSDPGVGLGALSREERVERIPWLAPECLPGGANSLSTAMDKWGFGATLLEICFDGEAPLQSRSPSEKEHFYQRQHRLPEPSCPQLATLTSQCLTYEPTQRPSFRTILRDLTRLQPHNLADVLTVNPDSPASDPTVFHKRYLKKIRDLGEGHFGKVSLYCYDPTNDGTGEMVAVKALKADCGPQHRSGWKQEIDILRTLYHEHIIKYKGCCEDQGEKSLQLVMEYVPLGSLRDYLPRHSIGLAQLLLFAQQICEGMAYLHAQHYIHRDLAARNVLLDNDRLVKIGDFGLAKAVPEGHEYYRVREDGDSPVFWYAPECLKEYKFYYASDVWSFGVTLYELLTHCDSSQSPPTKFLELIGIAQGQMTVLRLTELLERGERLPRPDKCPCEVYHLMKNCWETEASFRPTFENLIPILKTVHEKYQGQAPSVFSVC

Row | SMILES | Kd [1] | Kd [2] | Kd [3] | Kd [4] | Kd [5] | Kd [6] | Kd [7] | Kd [8] | Kd (Actin-related protein 2) | Kd [9] | pKd [3] | pKd [7] | pKd [4]
1 | Cn1ncc(Cl)c1-c1cc(C(=O)N[C@H](CN)Cc2cccc(F)c2)sc1Cl [AFURESERTIB] | > 30 µM (inactive) | > 30 µM (inactive) | > 30 µM (inactive) | > 30 µM (inactive) | > 30 µM (inactive) | > 30 µM (inactive) | > 30 µM (inactive) | > 30 µM (inactive) | > 30 µM (inactive) | – | – | – | –
2 | Cc1cn(-c2cc(NC(=O)c3ccc(C)c(Nc4nccc(-c5cccnc5)n4)c3)cc(C(F)(F)F)c2)cn1 [NILOTINIB] | – | > 30 µM (inactive) | > 30 µM (inactive) | > 30 µM (inactive) | – | – | > 30 µM (inactive) | > 30 µM (inactive) | > 30 µM (inactive) | > 30 µM (inactive) | – | – | –
3 | C=CC(=O)N1CCC(Oc2cc3c(Nc4ccc(Cl)c(Cl)c4F)ncnc3cc2OC)CC1 [POZIOTINIB] | > 30 µM (inactive) | > 30 µM (inactive) | > 30 µM (inactive) | > 30 µM (inactive) | > 30 µM (inactive) | > 30 µM (inactive) | – | > 30 µM (inactive) | – | – | – | – | –
4 | CN1CCN(c2ccc3nc(-c4c(N)c5c(F)cccc5[nH]c4=O)[nH]c3c2)CC1 [DOVITINIB] | – | > 30 µM (inactive) | > 30 µM (inactive) | > 30 µM (inactive) | – | – | > 30 µM (inactive) | > 30 µM (inactive) | > 30 µM (inactive) | > 30 µM (inactive) | – | – | –
5 | CNC(=O)c1ccc(C)c(-n2c(C)cc(OCc3ccc(F)cc3F)c(Br)c2=O)c1 [PH-797804] | > 30 µM (inactive) | > 30 µM (inactive) | > 30 µM (inactive) | > 30 µM (inactive) | > 30 µM (inactive) | > 30 µM (inactive) | – | > 30 µM (inactive) | > 30 µM (inactive) | – | – | – | –
6 | Cc1cc(Nc2cc(N3CCN(C)CC3)nc(/C=C/c3ccccc3)n2)n[nH]1 [ENMD-2076] | – | > 30 µM (inactive) | > 30 µM (inactive) | > 30 µM (inactive) | – | – | > 30 µM (inactive) | > 30 µM (inactive) | > 30 µM (inactive) | > 30 µM (inactive) | – | – | –
7 | Nc1nc(N)c2nc(-c3cccc(O)c3)c(-c3cccc(O)c3)nc2n1 [TG100-115] | – | > 30 µM (inactive) | – | > 30 µM (inactive) | – | – | > 30 µM (inactive) | > 30 µM (inactive) | – | > 30 µM (inactive) | 5.77 | – | –
8 | Cn1cc(-c2ccc(F)c(C(F)(F)F)c2)nc1C1CCN(c2ncnc3[nH]ncc23)CC1 [LY-2584702] | > 30 µM (inactive) | > 30 µM (inactive) | > 30 µM (inactive) | > 30 µM (inactive) | > 30 µM (inactive) | > 30 µM (inactive) | – | > 30 µM (inactive) | > 30 µM (inactive) | – | – | – | –
9 | O=C1NC(=O)/C(=C/c2ccc3nccc(-c4ccncc4)c3c2)S1 [GSK-1059615] | > 30 µM (inactive) | > 30 µM (inactive) | > 30 µM (inactive) | > 30 µM (inactive) | 0.035 µM (active) | > 30 µM (inactive) | > 30 µM (inactive) | > 30 µM (inactive) | > 30 µM (inactive) | – | – | – | –
10 | CCn1c(-c2nonc2N)nc2c(C#CC(C)(C)O)ncc(OC[C@H]3CCCNC3)c21 [GSK-690693] | – | > 30 µM (inactive) | > 30 µM (inactive) | > 30 µM (inactive) | – | – | – | > 30 µM (inactive) | > 30 µM (inactive) | > 30 µM (inactive) | – | 7.28 | –
11 | COC(=O)[C@@]1(O)C[C@H]2O[C@]1(C)n1c3ccccc3c3c4c(c5c6ccccc6n2c5c31)C(=O)NC4 [K-252A] | > 30 µM (inactive) | > 30 µM (inactive) | > 30 µM (inactive) | > 30 µM (inactive) | 0.005 µM (active) | 0.083 µM (active) | > 30 µM (inactive) | > 30 µM (inactive) | > 30 µM (inactive) | – | – | – | –

Further lines, results first:

Row | Kd [1] | Kd [2] | Kd [3] | Kd [4] | Kd [5] | Kd [6] | Kd [7] | Kd [8] | Kd (Actin-related protein 2) | Kd [9] | pKd [3] | pKd [7] | pKd [4] | SMILES
12 | > 30 µM (inactive) | > 30 µM (inactive) | > 30 µM (inactive) | > 30 µM (inactive) | > 30 µM (inactive) | > 30 µM (inactive) | – | > 30 µM (inactive) | > 30 µM (inactive) | – | – | – | – | C[C@@H](Nc1cc(F)cc(F)c1)c1cc(C(=O)N(C)C)cc2c(=O)cc(N3CCOCC3)oc12 [AZD-8186]
13 | > 30 µM (inactive) | > 30 µM (inactive) | > 30 µM (inactive) | > 30 µM (inactive) | > 30 µM (inactive) | > 30 µM (inactive) | > 30 µM (inactive) | > 30 µM (inactive) | > 30 µM (inactive) | – | – | – | – | Cn1cc(-c2ccc3nnc(C(F)(F)c4ccc5ncccc5c4)n3n2)cn1 [JNJ-38877605]
14 | – | > 30 µM (inactive) | > 30 µM (inactive) | > 30 µM (inactive) | 0.042 µM (active) | > 30 µM (inactive) | > 30 µM (inactive) | > 30 µM (inactive) | – | – | – | – | – | C1=C/COCc2cc(ccc2OCCN2CCCC2)Nc2nccc(n2)-c2cccc(c2)COC/1 [PACRITINIB]
15 | > 30 µM (inactive) | > 30 µM (inactive) | > 30 µM (inactive) | > 30 µM (inactive) | 1.32 µM (active) | > 30 µM (inactive) | > 30 µM (inactive) | > 30 µM (inactive) | – | – | – | – | – | COc1cc(N2CCC(N3CCN(C)CC3)CC2)ccc1Nc1ncnc(Nc2ccccc2S(=O)(=O)C(C)C)n1 [ASP-3026]
16 | – | > 30 µM (inactive) | > 30 µM (inactive) | 0.111 µM (active) | 0.006 µM (active) | – | – | > 30 µM (inactive) | > 30 µM (inactive) | > 30 µM (inactive) | – | – | – | Cc1nc(N)sc1-c1ccnc(Nc2ccc(N3CCOCC3)cc2)n1 [CYC-116]
17 | > 30 µM (inactive) | > 30 µM (inactive) | > 30 µM (inactive) | – | > 30 µM (inactive) | > 30 µM (inactive) | > 30 µM (inactive) | > 30 µM (inactive) | > 30 µM (inactive) | – | – | – | 5.72 | Cc1c(F)cc(C(=O)NC2CC2)cc1-c1ccc(C(=O)NCC(C)(C)C)cn1 [LOSMAPIMOD]
